From patent publication US8461150B2, “Chalcone linked pyrrolo[2,1-c][1, 4]benzodiazepine hybrids as potential anticancer agents and process for the preparation thereof” (Council of Scientific & Industrial Research, priority 2008, dated 2013) come the findings set out here.

One series relates to human tumour cell lines. Briefly: In vitro cytotoxicity, mean graph midpoints (MG_MID) over human tumour cell lines. Type of series: cell-based. The following applies: for Log10LC50 mean graph midpoint (MG_MID): 50% cell death; for Log10LC50 mean graph midpoint (MG_MID) / Log10GI50 mean graph midpoint (MG_MID) / Log10TGI mean graph midpoint (MG_MID): human tumour cell lines, 48 h exposure, SRB; for cytotoxicity against some cancer cell lines: in words, refers to Table 3; for Log10TGI mean graph midpoint (MG_MID): total cell growth inhibition. Here is the method: Biological Activity: The in vitro cell line studies were carried out at the National Cancer Institute, Maryland, USA.
6b, 6c, 6g, 10a and 10b were evaluated for in vitro anticancer activity against sixty human tumour cells derived from nine cancer types (leukemia, non-small-cell lung, colon, CNS, melanoma, ovarian, prostate, renal and breast cancer) as shown in (Table 1 and 2). For the compound, dose response curves for each cell line were measured at a minimum of five concentrations at 10 fold dilutions. A protocol of 48 h continuous drug exposure was used and a sulforhodamine B (SRB) protein assay was used to estimate cell viability or growth. The concentration causing 50% cell growth inhibition (GI50), total cell growth inhibition (TGI 0% growth) and 50% cell death (LC50, −50% growth) compared with the control was calculated.

The test system of a further series is MDA-MB-231/ATCC (Breast). Briefly: Cytotoxicity in selected cancer cell lines (SRB, 48 h). Type of series: cell-based, human. In short, it runs like this:
(§1)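 Cells treated 48 h, continuous exposure; ≥5 conc., 10-fold dilutions. SRB read-out; GI50/TGI/LC50 vs control.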

The test system of series [1] is NCI-H522 (Non-small cell lung). The series is described as above. Type of series: cell-based, human. In short, it runs like this: as §1
Another series relates to M14 (Melanoma). The description is as above. The series is classed as cell-based, human. Put shortly:
as §1

For another series, the system named is TK-10 (Renal). The series is described as above. Type of series: cell-based, human. Put shortly:
as §1

Another series deals with LOX IMVI (Melanoma). Described as above. Type of series: cell-based, human. Put shortly:
as §1

The test system of series [2] is duplex-form calf thymus DNA (CT-DNA). Briefly: Thermal denaturation studies with calf thymus DNA. The series is classed as binding. The following applies: [PBD]:[DNA] molar ratio 1:5, CT-DNA 100 μM, ligand 20 μM, pH 7.00; for ΔTμ (° C.) after incubation at 37 °C. for 0 h: 0 h incubation; for ΔTμ (° C.) after incubation at 37 °C. for 18 h: 18 h incubation. Here is the method:
These compounds have also been subjected to thermal denaturation studies with duplex-form calf thymus DNA (CT-DNA) using an modification of a reported procedure. Working solutions in aqueous buffer (10 mM NaH2PO4/Na2HPO4, 1 mM Na2EDTA, pH 7.00+0.01) containing CT-DNA (100 μm in phosphate) and the PBD (20 μm) have been prepared by addition of concentrated PBD solutions in DMSO to obtain a fixed [PBD]/[DNA] molar ratio of 1:5. The DNA-PBD solutions have been incubated at 37° C. for 0 and 18 h prior to analysis. Samples have been monitored at 260 nm using a Beckman DU-800 spectrophotometer fitted with high performance temperature controller, and heated at 1° C. min^−1 in the 40-110° C. range. DNA helix→coil transition temperatures (Tm) have been obtained from the maxima in the d(A260)/d T derivative plots. Drug-induced alterations in DNA melting behavior are given by: ΔTm=Tm(DNA+PBD)−Tm(DNA alone), where the Tm value for the PBD-free CT-DNA is 68.5±0.01.

The term GI50 denotes the concentration at which growth is held to half of that of the control.

`COc1cc(C=CC(=O)c2ccc(F)cc2)ccc1OCCCCOc1cc2c(cc1OC)C(=O)N1CCC[C@H]1C=N2` [6b, 7-Methoxy-8-{4-[1-(4-fluorophenyl)-3-(4-hydroxy-3-methoxyphenyl)-2-propen-1-one]butyl}-oxy-(11aS)-1,2,3,11a-5H-pyrrolo[2,1-c][1,4]benzodiazepin-5-one]: in the series on human tumour cell lines, the “Log10LC50 mean graph midpoint (MG_MID)” value is −4.59, the “Log10GI50 mean graph midpoint (MG_MID)” value is −6.83, the “cytotoxicity against some cancer cell lines” value (shortened to “cytotoxicity”) is recorded as “promising cytotoxicity” and the “Log10TGI mean graph midpoint (MG_MID)” value is −6.81. Further, the GI50 with MDA-MB-231/ATCC (Breast) amounted to 11.6 µM. Moreover, the GI50 in series [1] was 11.5 µM. The GI50 with M14 (Melanoma) came to 10.1 µM. The compound also had a GI50 in the series on TK-10 (Renal) of 16.6 µM. The same compound had a GI50 in the series with LOX IMVI (Melanoma) of 10 µM. In series [2], the “ΔTμ (° C.) after incubation at 37 °C. for 0 h” value came out at 2.2 °C and the “ΔTμ (° C.) after incubation at 37 °C. for 18 h” value turned out to be 2.6 °C.
For `COc1cc(C=CC(=O)c2ccc(F)cc2)ccc1OCCCCCOc1cc2c(cc1OC)C(=O)N1CCC[C@H]1C=N2` [6c, 7-Methoxy-8-{5-[1-(4-fluorophenyl)-3-(4-hydroxy-3-methoxyphenyl)-2-propen-1-one]pentyl}-oxy-(11aS)-1,2,3,11a-5H-pyrrolo[2,1-c][1,4]benzodiazepin-5-one], in the series on human tumour cell lines, the “Log10LC50 mean graph midpoint (MG_MID)” value was −4.61. For the same compound, the “Log10GI50 mean graph midpoint (MG_MID)” value in the series on human tumour cell lines is recorded as −6.86. In the series with human tumour cell lines, the “cytotoxicity” value is on record as “promising cytotoxicity”. Also, the “Log10TGI mean graph midpoint (MG_MID)” value with human tumour cell lines is recorded as −6.79. Further, the GI50 in the series with MDA-MB-231/ATCC (Breast) is 19.9 µM; in series [1], 65.3 µM; in the series on M14 (Melanoma) it was 14.5 µM; in the series on TK-10 (Renal) it was 38.2 µM; in the series with LOX IMVI (Melanoma), 18.2 µM. Moreover, the “ΔTμ (° C.) after incubation at 37 °C. for 0 h” value in series [2] came out at 2.4 °C. Further, the “ΔTμ (° C.) after incubation at 37 °C. for 18 h” value in series [2] was found to be 2.9 °C.
Regarding `COc1cc(C=CC(=O)c2c(C)nc3ccccc3c2C)ccc1OCCCOc1cc2c(cc1OC)C(=O)N1CCC[C@H]1C=N2` [10a, 7-Methoxy-8-{3-[3-(4-hydroxy-3-methoxyphenyl)-1-(2,4-dimethyl-3-quinolyl)-2-propen-1-one]propyl}-oxy-(11aS)-1,2,3,11a-5H-pyrrolo[2,1-c][1,4]benzodiazepin-5-one], in the series with human tumour cell lines, the “Log10LC50 mean graph midpoint (MG_MID)” value was −4.43. The “Log10GI50 mean graph midpoint (MG_MID)” value with human tumour cell lines is on record as −6.94. For the same compound, in the series with human tumour cell lines, the “cytotoxicity” value was “promising cytotoxicity”. The “Log10TGI mean graph midpoint (MG_MID)” value with human tumour cell lines is on record as −6.90. The GI50 in the series with MDA-MB-231/ATCC (Breast) was 19.9 µM; in series [1], 10.8 µM; with M14 (Melanoma), 14.5 µM; in the series with TK-10 (Renal) it was 33.2 µM; with LOX IMVI (Melanoma) it was 18.2 µM. For the same compound, the “ΔTμ (° C.) after incubation at 37 °C. for 0 h” value in series [2] was 4.0 °C. In series [2], the “ΔTμ (° C.) after incubation at 37 °C. for 18 h” value was determined as 4.6 °C.
Regarding `COc1cc(C=CC(=O)c2c(C)nc3ccccc3c2C)ccc1OCCCCOc1cc2c(cc1OC)C(=O)N1CCC[C@H]1C=N2` [10b, 7-Methoxy-8-{4-[3-(4-hydroxy-3-methoxyphenyl)-1-(2,4-dimethyl-3-quinolyl)-2-propen-1-one]butyl}-oxy-(11aS)-1,2,3,11a-5H-pyrrolo[2,1-c][1,4]benzodiazepin-5-one], the “Log10LC50 mean graph midpoint (MG_MID)” value in the series on human tumour cell lines is −4.46. Also, the “Log10GI50 mean graph midpoint (MG_MID)” value with human tumour cell lines is −6.86. Besides, the “cytotoxicity” value with human tumour cell lines was “promising cytotoxicity”. Moreover, the “Log10TGI mean graph midpoint (MG_MID)” value in the series with human tumour cell lines is listed as −6.94. Moreover, the GI50 amounted to 14.2 µM with MDA-MB-231/ATCC (Breast); 9 µM in series [1]; 18.8 µM with M14 (Melanoma); 31.4 µM in the series on TK-10 (Renal); 15 µM in the series on LOX IMVI (Melanoma). For the same compound, in series [2], the “ΔTμ (° C.) after incubation at 37 °C. for 0 h” value amounted to 4.3 °C. Further, in series [2], the “ΔTμ (° C.) after incubation at 37 °C. for 18 h” value was 4.9 °C.
